According to PMC10008561 (Nature Communications, 2023):
“And” between values parts separate entries of the source, which are not always exact repeats. Equal values may be shown once. Read-outs that look alike come from different tables or passages of the source.

What was measured:
KOR K227A = KOR K227A (Homo sapiens, UniProt P41145, K227A); format: cell-based; parameters: expressed in transfected cells; host or cells: HEK 293T (ATCC, CRL-3216); details: Log [Drug]
human KOR (Gi3) [1] = target: T1, human KOR (Gi3) (Homo sapiens, UniProt P41145, D334A); assay: cell-based; details: HEK-293T
T1 construct: expressed in transfected cells; host or cells: HEK293T

human KOR (Gi3) [2] = target: T2, human KOR (Gi3) (Homo sapiens, UniProt P41145, L253A); assay: cell-based; details: HEK-293T
T2 construct: expressed in transfected cells; host or cells: HEK293T

human KOR (Gi3) [3] = target: T3, human KOR (Gi3) (Homo sapiens, UniProt P41145, D266A); assay: cell-based; details: HEK-293T
T3 construct: expressed in transfected cells; host or cells: HEK293T

human KOR (Gi3) [4] = target: T4, human KOR (Gi3) (Homo sapiens, UniProt P41145, K227A); assay: cell-based; details: HEK-293T
T4 construct: expressed in transfected cells; host or cells: HEK293T

human KOR (Gi3) [5] = target: T5, human KOR (Gi3) (Homo sapiens, UniProt P41145, E297A); assay: cell-based; details: HEK-293T
T5 construct: expressed in transfected cells; host or cells: HEK293T

human KOR (Gi3) [6] = target: T6, human KOR (Gi3) (Homo sapiens, UniProt P41145, Y139L); assay: cell-based; details: HEK-293T
T6 construct: expressed in transfected cells; host or cells: HEK293T

human KOR (Gi3) [7] = target: T7, human KOR (Gi3) (Homo sapiens, UniProt P41145, R274A); assay: cell-based; details: HEK-293T
T7 construct: expressed in transfected cells; host or cells: HEK293T

human KOR (Gi3) [8] = target: T8, human KOR (Gi3) (Homo sapiens, UniProt P41145, Q115N); assay: cell-based; details: HEK-293T
T8 construct: expressed in transfected cells; host or cells: HEK293T

human KOR (Gi3) [9] = target: T9, human KOR (Gi3) (Homo sapiens, UniProt P41145, F283A); assay: cell-based; details: HEK-293T
T9 construct: expressed in transfected cells; host or cells: HEK293T

human KOR (Gi3) [10] = target: T10, human KOR (Gi3) (Homo sapiens, UniProt P41145, D105A); assay: cell-based; details: HEK-293T
T10 construct: expressed in transfected cells; host or cells: HEK293T

human KOR (Gi3) [11] = target: T11, human KOR (Gi3) (Homo sapiens, UniProt P41145); assay: cell-based
T11 construct: expressed in transfected cells; host or cells: HEK293T

human KOR (β-arrestin 2) [12] = target: T12, human KOR (β-arrestin 2) (Homo sapiens, UniProt P41145, R274A); assay: cell-based; details: HEK-293T
T12 construct: expressed in transfected cells; host or cells: HEK293T

human KOR (β-arrestin 2) [13] = target: T13, human KOR (β-arrestin 2) (Homo sapiens, UniProt P41145, Y139L); assay: cell-based; details: HEK-293T
T13 construct: expressed in transfected cells; host or cells: HEK293T

human KOR (β-arrestin 2) [14] = target: T14, human KOR (β-arrestin 2) (Homo sapiens, UniProt P41145); assay: cell-based
T14 construct: expressed in transfected cells; host or cells: HEK293T

human KOR (β-arrestin 2) [15] = target: T15, human KOR (β-arrestin 2) (Homo sapiens, UniProt P41145, D334A); assay: cell-based; details: HEK-293T
T15 construct: expressed in transfected cells; host or cells: HEK293T

human KOR (β-arrestin 2) [16] = target: T16, human KOR (β-arrestin 2) (Homo sapiens, UniProt P41145, R271A); assay: cell-based; details: HEK-293T
T16 construct: expressed in transfected cells; host or cells: HEK293T

human KOR (β-arrestin 2) [17] = target: T17, human KOR (β-arrestin 2) (Homo sapiens, UniProt P41145, T94V); assay: cell-based; details: HEK-293T
T17 construct: expressed in transfected cells; host or cells: HEK293T

human KOR (β-arrestin 2) [18] = target: T18, human KOR (β-arrestin 2) (Homo sapiens, UniProt P41145, F114L); assay: cell-based; details: HEK-293T
T18 construct: expressed in transfected cells; host or cells: HEK293T

human KOR (β-arrestin 2) [19] = target: T19, human KOR (β-arrestin 2) (Homo sapiens, UniProt P41145, G319L); assay: cell-based; details: HEK-293T
T19 construct: expressed in transfected cells; host or cells: HEK293T

human KOR (β-arrestin 2) [20] = target: T20, human KOR (β-arrestin 2) (Homo sapiens, UniProt P41145, K227A); assay: cell-based; details: HEK-293T
T20 construct: expressed in transfected cells; host or cells: HEK293T

human KOR (β-arrestin 2) [21] = target: T21, human KOR (β-arrestin 2) (Homo sapiens, UniProt P41145, K200A); assay: cell-based; details: HEK-293T
T21 construct: expressed in transfected cells; host or cells: HEK293T

human KOR (β-arrestin 2) [22] = target: T22, human KOR (β-arrestin 2) (Homo sapiens, UniProt P41145, N322A); assay: cell-based; details: HEK-293T
T22 construct: expressed in transfected cells; host or cells: HEK293T

human KOR (β-arrestin 2) [23] = target: T23, human KOR (β-arrestin 2) (Homo sapiens, UniProt P41145, D155A); assay: cell-based; details: HEK-293T
T23 construct: expressed in transfected cells; host or cells: HEK293T

human KOR (β-arrestin 2) [24] = target: T24, human KOR (β-arrestin 2) (Homo sapiens, UniProt P41145, E297A); assay: cell-based; details: HEK-293T
T24 construct: expressed in transfected cells; host or cells: HEK293T

human KOR (β-arrestin 2) [25] = target: T25, human KOR (β-arrestin 2) (Homo sapiens, UniProt P41145, L253A); assay: cell-based; details: HEK-293T
T25 construct: expressed in transfected cells; host or cells: HEK293T

human KOR (β-arrestin 2) [26] = target: T26, human KOR (β-arrestin 2) (Homo sapiens, UniProt P41145, F283A); assay: cell-based; details: HEK-293T
T26 construct: expressed in transfected cells; host or cells: HEK293T

human KOR (β-arrestin 2) [27] = target: T27, human KOR (β-arrestin 2) (Homo sapiens, UniProt P41145, N141A); assay: cell-based; details: HEK-293T
T27 construct: expressed in transfected cells; host or cells: HEK293T

human KOR (β-arrestin 2) [28] = target: T28, human KOR (β-arrestin 2) (Homo sapiens, UniProt P41145, R257A); assay: cell-based; details: HEK-293T
T28 construct: expressed in transfected cells; host or cells: HEK293T

human KOR (β-arrestin 2) [29] = target: T29, human KOR (β-arrestin 2) (Homo sapiens, UniProt P41145, Y320L); assay: cell-based; details: HEK-293T
T29 construct: expressed in transfected cells; host or cells: HEK293T

human KOR (β-arrestin 2) [30] = target: T30, human KOR (β-arrestin 2) (Homo sapiens, UniProt P41145, R170A); assay: cell-based; details: HEK-293T
T30 construct: expressed in transfected cells; host or cells: HEK293T

human KOR (β-arrestin 2) [31] = target: T31, human KOR (β-arrestin 2) (Homo sapiens, UniProt P41145, Q115N); assay: cell-based; details: HEK-293T
T31 construct: expressed in transfected cells; host or cells: HEK293T

human KOR (β-arrestin 2) [32] = target: T32, human KOR (β-arrestin 2) (Homo sapiens, UniProt P41145, D266A); assay: cell-based; details: HEK-293T
T32 construct: expressed in transfected cells; host or cells: HEK293T

KOR = assay: Bias factor, Gz vs β-arrestin2 (BRET), U50,488 as reference; format: cell-based, human

KOR K227A, sequence (P41145 whole entry K227A): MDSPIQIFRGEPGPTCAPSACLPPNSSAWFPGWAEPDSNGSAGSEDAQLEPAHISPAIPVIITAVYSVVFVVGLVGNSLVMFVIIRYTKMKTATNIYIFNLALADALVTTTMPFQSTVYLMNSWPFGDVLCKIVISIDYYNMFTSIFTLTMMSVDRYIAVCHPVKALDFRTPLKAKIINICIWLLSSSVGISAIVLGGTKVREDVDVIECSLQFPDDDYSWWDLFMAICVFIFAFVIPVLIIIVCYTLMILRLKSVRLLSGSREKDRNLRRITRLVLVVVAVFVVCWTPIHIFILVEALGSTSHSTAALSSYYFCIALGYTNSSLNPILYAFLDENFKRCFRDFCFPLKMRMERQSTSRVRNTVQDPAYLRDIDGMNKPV
T14 sequence (P41145 whole entry): as the sequence (P41145 whole entry K227A) above, with A227K counted along it
T11 sequence (P41145 whole entry): as the sequence (P41145 whole entry K227A) above, with A227K counted along it
T4 sequence (P41145 whole entry K227A): as the sequence (P41145 whole entry K227A) above
T20 sequence (P41145 whole entry K227A): as above
T31 sequence (P41145 whole entry Q115N): as the sequence (P41145 whole entry K227A) above, with Q115N, A227K counted along it
T8 sequence (P41145 whole entry Q115N): as the sequence (P41145 whole entry K227A) above, with Q115N, A227K counted along it
T23 sequence (P41145 whole entry D155A): as the sequence (P41145 whole entry K227A) above, with D155A, A227K counted along it
T30 sequence (P41145 whole entry R170A): as the sequence (P41145 whole entry K227A) above, with R170A, A227K counted along it
T19 sequence (P41145 whole entry G319L): as the sequence (P41145 whole entry K227A) above, with A227K, G319L counted along it
T15 sequence (P41145 whole entry D334A): as the sequence (P41145 whole entry K227A) above, with A227K, D334A counted along it
T1 sequence (P41145 whole entry D334A): as the sequence (P41145 whole entry K227A) above, with A227K, D334A counted along it
T2 sequence (P41145 whole entry L253A): as the sequence (P41145 whole entry K227A) above, with A227K, L253A counted along it
T25 sequence (P41145 whole entry L253A): as the sequence (P41145 whole entry K227A) above, with A227K, L253A counted along it
T28 sequence (P41145 whole entry R257A): as the sequence (P41145 whole entry K227A) above, with A227K, R257A counted along it
T13 sequence (P41145 whole entry Y139L): as the sequence (P41145 whole entry K227A) above, with Y139L, A227K counted along it
T6 sequence (P41145 whole entry Y139L): as the sequence (P41145 whole entry K227A) above, with Y139L, A227K counted along it
T21 sequence (P41145 whole entry K200A): as the sequence (P41145 whole entry K227A) above, with K200A, A227K counted along it
T17 sequence (P41145 whole entry T94V): as the sequence (P41145 whole entry K227A) above, with T94V, A227K counted along it
T24 sequence (P41145 whole entry E297A): as the sequence (P41145 whole entry K227A) above, with A227K, E297A counted along it
T5 sequence (P41145 whole entry E297A): as the sequence (P41145 whole entry K227A) above, with A227K, E297A counted along it
T18 sequence (P41145 whole entry F114L): as the sequence (P41145 whole entry K227A) above, with F114L, A227K counted along it
T32 sequence (P41145 whole entry D266A): as the sequence (P41145 whole entry K227A) above, with A227K, D266A counted along it
T3 sequence (P41145 whole entry D266A): as the sequence (P41145 whole entry K227A) above, with A227K, D266A counted along it
T29 sequence (P41145 whole entry Y320L): as the sequence (P41145 whole entry K227A) above, with A227K, Y320L counted along it
T27 sequence (P41145 whole entry N141A): as the sequence (P41145 whole entry K227A) above, with N141A, A227K counted along it
T22 sequence (P41145 whole entry N322A): as the sequence (P41145 whole entry K227A) above, with A227K, N322A counted along it
T16 sequence (P41145 whole entry R271A): as the sequence (P41145 whole entry K227A) above, with A227K, R271A counted along it
T10 sequence (P41145 whole entry D105A): as the sequence (P41145 whole entry K227A) above, with D105A, A227K counted along it
T12 sequence (P41145 whole entry R274A): as the sequence (P41145 whole entry K227A) above, with A227K, R274A counted along it
T7 sequence (P41145 whole entry R274A): as the sequence (P41145 whole entry K227A) above, with A227K, R274A counted along it
T9 sequence (P41145 whole entry F283A): as the sequence (P41145 whole entry K227A) above, with A227K, F283A counted along it
T26 sequence (P41145 whole entry F283A): as the sequence (P41145 whole entry K227A) above, with A227K, F283A counted along it

SMILES: CN(C(=O)/C=C/c1ccoc1)[C@@H]1CC[C@@]2(O)[C@H]3Cc4ccc(O)c5c4[C@@]2(CCN3CC2CC2)[C@H]1O5 [Nalfurafine, nalfurafine]
- KOR K227A_Gi response (Figure S4D) (KOR K227A; M -6, replicate values): 107.002 and 103.527 and 102.568
- KOR K227A_Gi response (Figure S4D) (KOR K227A; M -6.5, replicate values): 98.0139 and 98.733 and 102.808
- KOR K227A_Gi response (Figure S4D) (KOR K227A; M -7, replicate values): 101.489 and 104.366 and 102.568
- KOR K227A_Gi response (Figure S4D) (KOR K227A; M -7.5, replicate values): 98.3734 and 96.4559 and 94.5383
- KOR K227A_Gi response (Figure S4D) (KOR K227A; M -8, replicate values): 100.531 and 98.0139
- KOR K227A_Gi response (Figure S4D) (KOR K227A; M -8.5, replicate values): 99.8116 and 103.767 and 98.2536
- KOR K227A_Gi response (Figure S4D) (KOR K227A; M -9, replicate values): 96.9353 and 103.167 and 100.291
- KOR K227A_Gi response (Figure S4D) (KOR K227A; M -9.5, replicate values): 98.9727 and 99.5719 and 95.8566
- KOR K227A_Gi response (Figure S4D) (KOR K227A; M -10, replicate values): 99.3322 and 106.283 and 99.5719
- KOR K227A_Gi response (Figure S4D) (KOR K227A; M -10.5, replicate values): 95.9765 and 94.778 and 93.8193
- KOR K227A_Gi response (Figure S4D) (KOR K227A; M -11, replicate values): 90.7033 and 96.5757 and 95.2574
- KOR K227A_Gi response (Figure S4D) (KOR K227A; M -12, replicate values): 68.1721 and 73.8049 and 67.4531
- KOR K227A_Gi response (Figure S4D) (KOR K227A; M -12.5, replicate values): 37.1319 and 43.2441 and 45.1616
- KOR K227A_Gi response (Figure S4D) (KOR K227A; M -13, replicate values): 12.6833 and 10.4062
- KOR K227A_Gi response (Figure S4D) (KOR K227A; M -14, replicate values): 6.331 and 5.612 and 17.3573
- Emax (human KOR (Gi3) [1]): 101%
- Emax (human KOR (Gi3) [2]): 104%
- Emax (human KOR (Gi3) [3]): 105%
- Emax (human KOR (Gi3) [4]): 106%
- Emax (human KOR (Gi3) [5]): 100%
- Emax (human KOR (Gi3) [6]): 96%
- Emax (human KOR (Gi3) [7]): 98.8%
- Emax (human KOR (Gi3) [8]): 78.7%
- Emax (human KOR (Gi3) [9]): 74.8%
- Emax (human KOR (Gi3) [10]): 81.7%
- Emax% (human KOR (Gi3) [11]): 99.93%
- Emax (human KOR (Gi3) [11]; HEK-293T): 100%
- Emax (human KOR (β-arrestin 2) [12]): 83.3%
- Emax (human KOR (β-arrestin 2) [13]): 113%
- Emax% (human KOR (β-arrestin 2) [14]): 80%
- Emax (human KOR (β-arrestin 2) [14]; HEK-293T): 100 ± 4%
- Emax (human KOR (β-arrestin 2) [15]): 78%
- Emax (human KOR (β-arrestin 2) [16]): 101 ± 8.2%
- Emax (human KOR (β-arrestin 2) [17]): 87.5%
- Emax (human KOR (β-arrestin 2) [18]): 48.7%
- Emax (human KOR (β-arrestin 2) [19]): 71%
- Emax (human KOR (β-arrestin 2) [20]): 97.5%
- Emax (human KOR (β-arrestin 2) [21]): 83.2%
- Emax (human KOR (β-arrestin 2) [22]): 87.1%
- Emax (human KOR (β-arrestin 2) [23]): 90.2%
- Emax (human KOR (β-arrestin 2) [24]): 101%
- Emax (human KOR (β-arrestin 2) [25]): 107%
- Emax (human KOR (β-arrestin 2) [26]): 100%
- Emax (human KOR (β-arrestin 2) [27]): 90.6%
- Emax (human KOR (β-arrestin 2) [28]): 103%
- Emax (human KOR (β-arrestin 2) [29]): 65.9%
- Emax (human KOR (β-arrestin 2) [30]): 100 ± 8.6%
- Emax (human KOR (β-arrestin 2) [31]): 67%
- Emax (human KOR (β-arrestin 2) [32]): 101%
- bias factor towards Gz protein (KOR): 4.8
